Measurements reported in PubChem BioAssay AID330 (DTP/NCI, 2004).
Where “and” joins values, the source holds several entries; their conditions need not be identical. Equal values may be shown once. Inconclusive results and toxic doses are left out. The calls were made as follows: active = survival T/C of 150% or more; inactive = T/C below 125% in these data.

System: P388 leukemia ip, CD2F1 mice, survival T/C
Assay: NCI In Vivo Anticancer Drug Screen. Data for tumor model P388 Leukemia (intraperitoneal) in CD2F1 (CDF1) mice
Conditions: endpoint: median survival time, higher = longer survival
How it was run: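 Mice carrying the transplanted tumor received test compound or vehicle. Survival was recorded in each group, and the value is the treated-group measurement divided by that of the vehicle-treated control group.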

[1] = dose: 50.0 mg/kg/injection, schedule: Q01DX009 (ip), vehicle: Klucel (hydroxypropylcellulose) (HPC)
[2] = dose: 100.0 mg/kg/injection, schedule: Q01DX009 (ip), vehicle: Klucel (hydroxypropylcellulose) (HPC)
[3] = dose: 60.0 mg/kg/injection, schedule: Q01DX005 (ip), vehicle: saline with Tween-80
[4] = dose: 120.0 mg/kg/injection, schedule: Q01DX005 (ip), vehicle: saline with Tween-80
[5] = dose: 240.0 mg/kg/injection, schedule: Q01DX005 (ip), vehicle: saline with Tween-80
[6] = dose: 100.0 mg/kg/injection, schedule: Q04DX002 (ip), vehicle: Klucel (hydroxypropylcellulose) (HPC)
[7] = dose: 200.0 mg/kg/injection, schedule: Q04DX002 (ip), vehicle: Klucel (hydroxypropylcellulose) (HPC)
[8] = dose: 400.0 mg/kg/injection, schedule: Q04DX002 (ip), vehicle: Klucel (hydroxypropylcellulose) (HPC)
[9] = dose: 50.0 mg/kg/injection, schedule: Q01DX005 (ip), vehicle: saline with Tween-80
[10] = dose: 100.0 mg/kg/injection, schedule: Q01DX005 (ip), vehicle: saline with Tween-80
[11] = dose: 200.0 mg/kg/injection, schedule: Q01DX005 (ip), vehicle: saline with Tween-80
[12] = dose: 50.0 mg/kg/injection, schedule: Q01DX009 (ip), vehicle: saline with Tween-80
[13] = dose: 100.0 mg/kg/injection, schedule: Q01DX009 (ip), vehicle: saline with Tween-80
[14] = dose: 200.0 mg/kg/injection, schedule: Q01DX009 (ip), vehicle: saline with Tween-80
[15] = dose: 50.0 mg/kg/injection, schedule: Q01DX005 (ip), vehicle: Klucel (hydroxypropylcellulose) (HPC)
[16] = dose: 100.0 mg/kg/injection, schedule: Q01DX005 (ip), vehicle: Klucel (hydroxypropylcellulose) (HPC)
[17] = dose: 25.0 mg/kg/injection, schedule: Q01DX009 (ip), vehicle: saline with Tween-80
[18] = dose: 100.0 mg/kg/injection, schedule: Q04DX003 (ip), vehicle: saline with Tween-80
[19] = dose: 200.0 mg/kg/injection, schedule: Q04DX003 (ip), vehicle: saline with Tween-80
[20] = dose: 400.0 mg/kg/injection, schedule: Q04DX003 (ip), vehicle: saline with Tween-80
[21] = dose: 50.0 mg/kg/injection, schedule: Q01DX009 (ip), vehicle: saline
[22] = dose: 100.0 mg/kg/injection, schedule: Q01DX009 (ip), vehicle: saline
[23] = dose: 200.0 mg/kg/injection, schedule: Q01DX009 (ip), vehicle: saline

Measured: T/C

Cc1ccc(S(=O)(=O)N=S(CCO)CCO)cc1
inactive: [1] 106 % of control | [2] 110 % of control | dose: 200.0 mg/kg/injection, schedule: Q01DX009 (ip), vehicle: Klucel (hydroxypropylcellulose) (HPC) 108 % of control | dose: 400.0 mg/kg/injection, schedule: Q01DX009 (ip), vehicle: Klucel (hydroxypropylcellulose) (HPC) 107 % of control

CN(C)CN1CSC(=S)N(CN(C)C)C1
inactive: dose: 50.0 mg/kg/injection, schedule: Q01DX005 (ip), vehicle: distilled water + alcohol 103 % of control | dose: 100.0 mg/kg/injection, schedule: Q01DX005 (ip), vehicle: distilled water + alcohol 116 % of control | dose: 200.0 mg/kg/injection, schedule: Q01DX005 (ip), vehicle: distilled water + alcohol 103 % of control

COC(=O)C1=C(C)OC2OCCC12 (stereo unspecified)
inactive: [3] 110 % of control | [4] 101 % of control | [5] 102 % of control

CC1SC(N)=NN=C1c1c(O)c2ccccc2oc1=O (stereo unspecified)
inactive: [6] 103 % of control | [7] 98 % of control | [8] 97 % of control

CCCCN(CCO)CC(O)Cn1cnc2c(N)ncnc21 (stereo unspecified)
inactive: dose: 60.0 mg/kg/injection, schedule: Q01DX005 (ip), vehicle: Klucel (hydroxypropylcellulose) (HPC) 94 % of control | dose: 120.0 mg/kg/injection, schedule: Q01DX005 (ip), vehicle: Klucel (hydroxypropylcellulose) (HPC) 87 % of control | dose: 240.0 mg/kg/injection, schedule: Q01DX005 (ip), vehicle: Klucel (hydroxypropylcellulose) (HPC) 87 % of control

CCOc1c(N=Nc2ccc(O)cc2)c(C)nn1C(N)=S
inactive: dose: 15.0 mg/kg/injection, schedule: Q01DX005 (ip), vehicle: Klucel + Tween-80 99 % of control | dose: 30.0 mg/kg/injection, schedule: Q01DX005 (ip), vehicle: Klucel + Tween-80 101 % of control

Cc1nc2c(N)cc(Cl)cc2[nH]1
inactive: dose: 50.0 mg/kg/injection, schedule: Q01DX005 (ip), vehicle: saline + Tween-80 + alcohol 101 % of control | [9] 103 % of control | dose: 100.0 mg/kg/injection, schedule: Q01DX005 (ip), vehicle: saline + Tween-80 + alcohol 110 % of control | [10] 113 % of control | [11] 120 % of control

O=[N+]([O-])[O-].OCCNCCNCC[OH2+].OCCNCCNCC[OH2+].[Ni+2]
inactive: dose: 3.13 mg/kg/injection, schedule: Q01DX009 (ip), vehicle: saline 88 % of control | dose: 6.25 mg/kg/injection, schedule: Q01DX009 (ip), vehicle: saline 90 % of control | dose: 12.5 mg/kg/injection, schedule: Q01DX009 (ip), vehicle: saline 102 % of control and 86 % of control

CCCCC/C=C/C(=O)OC
inactive: dose: 100.0 mg/kg/injection, schedule: Q04DX002 (ip), vehicle: saline with Tween-80 100 % of control | dose: 200.0 mg/kg/injection, schedule: Q04DX002 (ip), vehicle: saline with Tween-80 100 % of control | dose: 400.0 mg/kg/injection, schedule: Q04DX002 (ip), vehicle: saline with Tween-80 100 % of control

CC(C)(Oc1ccc(C(=O)c2ccc(Cl)c(Cl)c2)cc1)C(=O)O
inactive: [12] 94 % of control | [13] 102 % of control | [14] 107 % of control

COc1cc(C(NC(N)=O)c2cc3c(cc2O)OCO3)cc(OC)c1OC (stereo unspecified)
inactive: [3] 106 % of control | [4] 102 % of control | [5] 100 % of control

CN1C(=O)C2CC(O)C(SC3CC4C(=O)N(C)C(=O)C4CC3O)CC2C1=O (stereo unspecified)
inactive: dose: 25.0 mg/kg/injection, schedule: Q01DX009 (ip), vehicle: water 98 % of control | dose: 50.0 mg/kg/injection, schedule: Q01DX009 (ip), vehicle: water 100 % of control | dose: 100.0 mg/kg/injection, schedule: Q01DX009 (ip), vehicle: water 98 % of control | dose: 200.0 mg/kg/injection, schedule: Q01DX009 (ip), vehicle: water 98 % of control

COC(=O)n1oc2c(Br)cc(Br)cc2c1=O
inactive: [6] 93 % of control | [7] 101 % of control | [8] 101 % of control

CC1=CC(Cc2ccccc2)N(C)C(C(N)=O)C1 (stereo unspecified)
inactive: [15] 102 % of control | [16] 101 % of control

ICC1CCCCC1CI (stereo unspecified)
inactive: [9] 106 % of control | [10] 99 % of control | [11] 104 % of control

Nc1nc(N)c2cc(Sc3ccc(Cl)cc3)ccc2n1
inactive: [17] 118 % of control | [14] 86 % of control

CC12C=C(C(=O)c3ccccc3)C(CC1)C2(C)C (stereo unspecified)
inactive: [13] 100 % of control | [14] 95 % of control | dose: 400.0 mg/kg/injection, schedule: Q01DX009 (ip), vehicle: saline with Tween-80 90 % of control

Clc1ccc2[nH]c3nc4ccccc4nc3c2c1
inactive: [17] 100 % of control | [12] 105 % of control | [18] 90 % of control | [19] 100 % of control | [20] 104 % of control

NC(CS)C(=O)O (stereo unspecified)
inactive: [9] 101 % of control | [21] 115 % of control | [10] 107 % of control | [22] 110 % of control | [11] 110 % of control | [23] 109 % of control

CCC(CC)C1SCC(=O)N1c1nncs1 (stereo unspecified)
inactive: [9] 99 % of control | [10] 105 % of control | [11] 102 % of control

CSc1ccc(SC)c2c1C(=O)c1c(SC)ccc(SC)c1C2=O
inactive: [12] 93 % of control | [13] 96 % of control

NC(N)=NS(=O)(=O)c1ccc([N+](=O)[O-])cc1
inactive: dose: 12.5 mg/kg/injection, schedule: Q01DX009 (ip), vehicle: saline with Tween-80 103 % of control | [17] 107 % of control | [12] 111 % of control

O=C1C2CCN(CC2)C1(CO)CO
inactive: [21] 102 % of control | [22] 105 % of control | [23] 105 % of control

O=C1Nc2ccccc2S/C1=C\c1cccc(C(F)(F)F)c1
inactive: [12] 94 % of control | [13] 100 % of control | [14] 105 % of control

CC(=O)OC1OC(CF)C(OC(C)=O)C1OC(C)=O (stereo unspecified)
inactive: dose: 50.0 mg/kg/injection, schedule: Q04DX003 (ip), vehicle: saline with Tween-80 112 % of control | [18] 100 % of control | [19] 93 % of control

NC1=NS(=O)(=O)c2ccccc21
inactive: [9] 101 % of control | [10] 106 % of control | [11] 99 % of control

COc1ccc(C2CCCC(CCc3ccc(O)cc3)O2)cc1 (stereo unspecified)
inactive: [15] 100 % of control | [16] 103 % of control | dose: 200.0 mg/kg/injection, schedule: Q01DX005 (ip), vehicle: Klucel (hydroxypropylcellulose) (HPC) 100 % of control

C=CCCN(c1ccc(C(=O)OCC)cc1)S(=O)(=O)c1ccc(C)cc1
inactive: [17] 100 % of control | [12] 110 % of control | [13] 100 % of control | [14] 108 % of control

COC(=O)NC1(NC(=O)OC)NC(=O)c2ccccc2N1
inactive: dose: 25.0 mg/kg/injection, schedule: Q01DX005 (ip), vehicle: DMSO 98 % of control | dose: 50.0 mg/kg/injection, schedule: Q01DX005 (ip), vehicle: DMSO 100 % of control

Cc1cc(C)c(O)c(N=Nc2ccccc2)c1
inactive: [18] 105 % of control | [19] 105 % of control | [20] 105 % of control

COc1ccc(C2N(c3ccccc3)CCN2c2ccccc2)cc1
inactive: [9] 99 % of control | [10] 93 % of control | [11] 93 % of control

CCC1(c2ccc(-c3ccccc3)cc2)OC(OC(=O)NC)C=CC1=O (stereo unspecified)
inactive: dose: 6.25 mg/kg/injection, schedule: Q01DX009 (ip), vehicle: Klucel (hydroxypropylcellulose) (HPC) 98 % of control

C=C(C)CC1CN2CCc3cc(OC)c(OC)cc3C2CC1=O (stereo unspecified)
inactive: [1] 106 % of control | [12] 102 % of control | [2] 104 % of control | [13] 116 % of control

O=C1NCC(CCl)O1 (stereo unspecified)
inactive: dose: 60.0 mg/kg/injection, schedule: Q01DX005 (ip), vehicle: saline 100 % of control | dose: 120.0 mg/kg/injection, schedule: Q01DX005 (ip), vehicle: saline 101 % of control | dose: 240.0 mg/kg/injection, schedule: Q01DX005 (ip), vehicle: saline 102 % of control

O=C(O)C1=CC2C=C(Cl)C=CC2OC1=O (stereo unspecified)
inactive: [3] 100 % of control | [4] 100 % of control

CC1=CC2C(=O)N(C)C1c1ccccc12 (stereo unspecified)
inactive: [6] 100 % of control | [7] 100 % of control | [8] 97 % of control
